The record followed here is patent US10526345B2, “Compounds as GPR119 agonists” (Mankind Pharma Ltd., priority 2016, dated 2020).

A value given as a limit tells only on which side of the number the result lay.

The target of one test is T1, hGPR119 (Homo sapiens, UniProt Q8TDV5).
T1 construct: expressed in transfected cells; host or cells: CHO
T1 sequence (Q8TDV5 1-335): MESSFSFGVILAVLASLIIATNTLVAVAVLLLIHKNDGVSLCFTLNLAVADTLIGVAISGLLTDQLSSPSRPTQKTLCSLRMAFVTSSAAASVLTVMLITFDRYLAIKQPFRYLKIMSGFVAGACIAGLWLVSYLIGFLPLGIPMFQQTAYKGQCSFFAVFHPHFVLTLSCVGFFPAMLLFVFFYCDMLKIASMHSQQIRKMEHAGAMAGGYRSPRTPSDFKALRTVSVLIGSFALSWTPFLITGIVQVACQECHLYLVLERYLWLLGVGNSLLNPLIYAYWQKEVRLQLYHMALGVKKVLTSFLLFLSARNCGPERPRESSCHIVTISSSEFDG
Kind of test: In vitro cyclic AMP assay (Cisbio dynamic 2 HTRF kit) in CHO-hGPR119 cells. It is filed as cell-based. As to conditions: 1 h, cAMP, compound at 1 μM, 60 min, read-out: Induction (% induction at 1 μM).
Regarding `CC(C)c1noc(C2CCN(c3nc4ccc(-c5ccc(C(=O)N(C)C)cc5)nc4s3)CC2)n1` [Compound 1022, 4-(2-(4-(3-isopropyl-1,2,4-oxadiazol-5-yl)piperidin-1-yl)thiazolo[5,4-b]pyridin-5-yl)-N,N-dimethylbenzamide], the activation at 1 µM amounted to 35%.

With `C[C@H](Oc1nc2ccc(-c3ccc(S(C)(=O)=O)nc3)nc2s1)C1CCN(c2ncc(Cl)cn2)CC1` [Compound 1136, 2-((S)-1-(1-(5-chloropyrimidin-2-yl)piperidin-4-yl)ethoxy)-5-(6-(methylsulfonyl)pyridin-3-yl)thiazolo[5,4-b]pyridine], the activation at 1 µM is 82%.

Take `COCCNS(=O)(=O)c1ccc(-c2ccc3nc(N4CCC(c5nc(C(C)C)no5)CC4)sc3n2)cc1` [Compound 1073, 4-(2-(4-(3-isopropyl-1,2,4-oxadiazol-5-yl)piperidin-1-yl)thiazolo[5,4-b]pyridin-5-yl)-N-(2-methoxyethyl)benzenesulphonamide]: the activation at 1 µM was determined as 29%.

Take `CC(C)c1noc(N2CCC(C(C)Oc3nc4ncc(-c5ccc(S(C)(=O)=O)cc5)nc4s3)CC2)n1` (stereo not shown) [Compound 1108, 3-isopropyl-5-(4-(1-((6-(4-(methylsulfonyl)phenyl)thiazolo[4,5-b]pyrazin-2-yl)oxy)ethyl)piperidin-1-yl)-1,2,4-oxadiazole]: the activation at 1 µM is 65%.

As for `CC(C)c1noc(N2CCC(C(C)Oc3nc4ccc(-c5ccnnc5)nc4s3)CC2)n1` (stereo not shown) [Compound 1134, 3-isopropyl-5-(4-(1-((5-(pyridazin-4-yl)thiazolo[5,4-b]pyridin-2-yl)oxy)ethyl)piperidin-1-yl)-1,2,4-oxadiazole], the activation at 1 µM was 40%.

Take `Cc1nc(S(C)(=O)=O)ccc1-c1ccc2nc(OC(C)C3CCN(c4nc(C(C)C)no4)CC3)sc2n1` (stereo in doubt) [Compound 1168, 2-((S)-1-(1-(3-isopropyl-1,2,4-oxadiazol-5-yl)piperidin-4-yl)ethoxy)-5-(2-methyl-6-(methylsulfonyl)pyridin-3-yl)thiazolo[5,4-b]pyridine]: the activation at 1 µM was determined as 22%.

As to `CC(C)c1noc(N2CCC(C(C)Oc3nc4ccc(-c5ccc(N6CCCC6=O)nc5)nc4s3)CC2)n1` (stereo not shown) [Compound 1146, 1-(5-(2-(1-(1-(3-isopropyl-1,2,4-oxadiazol-5-yl)piperidin-4-yl)ethoxy)thiazolo[5,4-b]pyridin-5-yl)pyridin-2-yl)pyrrolidin-2-one], the activation at 1 µM turned out to be 61%.

As to `CC(C)c1noc(N2CCC([C@H](C)Oc3nc4ccc(-c5ccc(S(C)(=O)=O)nc5F)nc4s3)CC2)n1` [Compound 1167, 2-((S)-1-(1-(3-isopropyl-1,2,4-oxadiazol-5-yl)piperidin-4-yl)ethoxy)-5-(2-fluoro-6-(methylsulfonyl)pyridin-3-yl)thiazolo[5,4-b]pyridine], the activation at 1 µM turned out to be 20%.

As to `COCC[S+]([O-])c1ccc(-c2ccc3nc(OC(C)C4CCN(c5nc(C(C)C)no5)CC4)sc3n2)cc1` (stereo not shown) [Compound 1068, 3-isopropyl-5-(4-(1-((5-(4-((2-methoxyethyl)sulfinyl)phenyl)thiazolo[5,4-b]pyridin-2-yl)oxy)ethyl)piperidin-1-yl)-1,2,4-oxadiazole], the activation at 1 µM was determined as 13%.

Regarding `CC(C)c1noc(N2CCC(C(C)Oc3nc4ccc(-c5ccc(-n6cnnn6)cc5)nc4s3)CC2)n1` (stereo not shown) [Compound 1079, 5-(4-(1-((5-(4-(1H-tetrazol-1-yl)phenyl)thiazolo[5,4-b]pyridin-2-yl)oxy)ethyl)piperidin-1-yl)-3-isopropyl-1,2,4-oxadiazole], the activation at 1 µM was determined as 50%.

For the compound `CC(C)c1noc(N2CCC([C@H](C)Oc3nc4ccc(-c5ccnc(F)c5)nc4s3)CC2)n1` [Compound 1093, (S)-5-(4-(1-((5-(2-fluoropyridin-4-yl)thiazolo[5,4-b]pyridin-2-yl)oxy)ethyl)piperidin-1-yl)-3-isopropyl-1,2,4-oxadiazole], the activation at 1 µM turned out to be 82%.

The test is the same for the next values; noted with them: cAMP.
For the compound `C[C@H](Oc1nc2ccc(-c3ccc(S(C)(=O)=O)nc3)nc2s1)C1CCN(c2ncc(Cl)cn2)CC1` [Compound 1136, 2-((S)-1-(1-(5-chloropyrimidin-2-yl)piperidin-4-yl)ethoxy)-5-(6-(methylsulfonyl)pyridin-3-yl)thiazolo[5,4-b]pyridine], the EC50 lay in the range of 100 to 500 nM.

As for `CC(C)c1noc(N2CCC([C@H](C)Oc3nc4ccc(-c5ccnc(F)c5)nc4s3)CC2)n1` [Compound 1093, (S)-5-(4-(1-((5-(2-fluoropyridin-4-yl)thiazolo[5,4-b]pyridin-2-yl)oxy)ethyl)piperidin-1-yl)-3-isopropyl-1,2,4-oxadiazole], the EC50 is < 25 nM.
